Results taken from ChEMBL document CHEMBL4706656, “Ifenprodil Stereoisomers: Synthesis, Absolute Configuration, and Correlation with Biological Activity” (J Med Chem, 2021).

Columns and labels:
[1] = molecular target: T1, Alpha-1A adrenergic receptor (Homo sapiens, UniProt P35348); assay: Displacement of [3H]prazosin from alpha-1A adrenergic receptor (unknown origin)
T1 sequence (P35348 whole entry): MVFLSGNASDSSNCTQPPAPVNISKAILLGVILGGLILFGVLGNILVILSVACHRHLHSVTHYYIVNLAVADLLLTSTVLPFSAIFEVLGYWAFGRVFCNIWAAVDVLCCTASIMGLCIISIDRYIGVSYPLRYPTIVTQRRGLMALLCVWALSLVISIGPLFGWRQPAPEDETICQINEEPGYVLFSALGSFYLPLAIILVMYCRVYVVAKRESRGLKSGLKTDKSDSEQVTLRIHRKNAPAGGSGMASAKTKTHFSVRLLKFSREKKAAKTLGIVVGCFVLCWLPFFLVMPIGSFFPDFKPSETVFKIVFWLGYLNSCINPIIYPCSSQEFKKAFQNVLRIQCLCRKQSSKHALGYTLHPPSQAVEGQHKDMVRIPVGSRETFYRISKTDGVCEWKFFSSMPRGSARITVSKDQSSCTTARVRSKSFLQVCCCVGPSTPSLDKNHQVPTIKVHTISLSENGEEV

[2] = molecular target: T2, Alpha-2A adrenergic receptor (Homo sapiens, UniProt P08913); assay: Displacement of [3H]RX821002 from alpha-2A adrenergic receptor (unknown origin)
T2 sequence (P08913 whole entry): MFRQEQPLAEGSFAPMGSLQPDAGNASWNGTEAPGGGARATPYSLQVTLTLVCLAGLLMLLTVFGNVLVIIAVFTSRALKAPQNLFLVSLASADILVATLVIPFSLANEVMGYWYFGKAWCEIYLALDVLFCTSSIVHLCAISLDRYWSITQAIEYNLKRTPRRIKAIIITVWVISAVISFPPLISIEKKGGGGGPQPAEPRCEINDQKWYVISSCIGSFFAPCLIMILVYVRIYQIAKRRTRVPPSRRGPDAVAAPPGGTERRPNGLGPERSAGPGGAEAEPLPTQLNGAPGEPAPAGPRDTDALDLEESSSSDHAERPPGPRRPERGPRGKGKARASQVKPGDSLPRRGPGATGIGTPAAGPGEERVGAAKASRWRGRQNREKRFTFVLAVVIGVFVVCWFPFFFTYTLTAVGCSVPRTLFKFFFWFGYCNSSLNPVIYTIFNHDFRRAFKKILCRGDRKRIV

[3] = molecular target: T3, 5-hydroxytryptamine receptor 1A (Homo sapiens, UniProt P08908); assay: Displacement of [3H]-8-OH-DPAT from human 5-HT1A receptor expressed in HEK293 cells incubated for 1 hr by radioligand binding assay; format: cell-based
T3 sequence (P08908 whole entry): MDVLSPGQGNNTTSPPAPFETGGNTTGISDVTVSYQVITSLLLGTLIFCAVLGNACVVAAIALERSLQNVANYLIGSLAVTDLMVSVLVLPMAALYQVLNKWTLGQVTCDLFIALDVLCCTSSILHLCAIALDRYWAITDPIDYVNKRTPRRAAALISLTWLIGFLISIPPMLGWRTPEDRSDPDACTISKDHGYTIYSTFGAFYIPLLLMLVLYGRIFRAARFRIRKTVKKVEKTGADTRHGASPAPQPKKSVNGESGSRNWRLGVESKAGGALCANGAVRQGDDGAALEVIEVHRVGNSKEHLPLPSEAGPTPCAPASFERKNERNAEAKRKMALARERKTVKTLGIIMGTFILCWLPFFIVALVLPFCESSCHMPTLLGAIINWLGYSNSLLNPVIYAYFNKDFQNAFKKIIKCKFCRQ

[4] = molecular target: 5-hydroxytryptamine receptor 2A (Homo sapiens, UniProt P28223); assay: Displacement of [3H]ketanserin from human 5-HT2A receptor expressed in CHO-K1 cells incubated for 1 hr by radioligand binding assay; format: cell-based
Sequence of 5-hydroxytryptamine receptor 2A (P28223 whole entry): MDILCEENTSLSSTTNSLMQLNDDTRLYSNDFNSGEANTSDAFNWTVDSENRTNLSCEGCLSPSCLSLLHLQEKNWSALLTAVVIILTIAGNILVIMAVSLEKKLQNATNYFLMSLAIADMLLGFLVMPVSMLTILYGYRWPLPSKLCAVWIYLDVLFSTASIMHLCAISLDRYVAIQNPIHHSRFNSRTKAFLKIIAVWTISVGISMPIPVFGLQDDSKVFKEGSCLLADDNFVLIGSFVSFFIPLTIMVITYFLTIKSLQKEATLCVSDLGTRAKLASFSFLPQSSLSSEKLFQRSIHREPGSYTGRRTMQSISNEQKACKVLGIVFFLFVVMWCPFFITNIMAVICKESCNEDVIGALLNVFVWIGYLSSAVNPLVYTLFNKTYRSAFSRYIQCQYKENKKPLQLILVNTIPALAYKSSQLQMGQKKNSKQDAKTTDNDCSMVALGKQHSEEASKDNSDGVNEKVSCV

[5] = molecular target: 5-hydroxytryptamine receptor 2B (Homo sapiens, UniProt P41595); assay: Binding affinity to 5-HT2B receptor (unknown origin) incubated for 1 hr by radioligand binding assay
Sequence of 5-hydroxytryptamine receptor 2B (P41595 whole entry): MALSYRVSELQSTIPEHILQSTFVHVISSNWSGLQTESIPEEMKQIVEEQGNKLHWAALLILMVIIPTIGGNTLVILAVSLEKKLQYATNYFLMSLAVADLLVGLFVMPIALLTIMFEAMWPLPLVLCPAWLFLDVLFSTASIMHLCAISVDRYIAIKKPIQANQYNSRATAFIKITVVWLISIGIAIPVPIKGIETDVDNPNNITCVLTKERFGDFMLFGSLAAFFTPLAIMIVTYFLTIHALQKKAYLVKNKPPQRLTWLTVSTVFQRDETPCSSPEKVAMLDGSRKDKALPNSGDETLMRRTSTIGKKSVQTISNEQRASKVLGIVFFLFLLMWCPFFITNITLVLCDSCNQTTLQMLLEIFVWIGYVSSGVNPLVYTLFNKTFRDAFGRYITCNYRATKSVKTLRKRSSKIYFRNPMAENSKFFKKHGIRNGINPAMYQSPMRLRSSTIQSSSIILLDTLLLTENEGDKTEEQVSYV

[6] = molecular target: T4, 5-hydroxytryptamine receptor 2C (Homo sapiens, UniProt P28335); assay: Binding affinity to 5-HT2C receptor (unknown origin) incubated for 1 hr by radioligand binding assay
T4 sequence (P28335 whole entry): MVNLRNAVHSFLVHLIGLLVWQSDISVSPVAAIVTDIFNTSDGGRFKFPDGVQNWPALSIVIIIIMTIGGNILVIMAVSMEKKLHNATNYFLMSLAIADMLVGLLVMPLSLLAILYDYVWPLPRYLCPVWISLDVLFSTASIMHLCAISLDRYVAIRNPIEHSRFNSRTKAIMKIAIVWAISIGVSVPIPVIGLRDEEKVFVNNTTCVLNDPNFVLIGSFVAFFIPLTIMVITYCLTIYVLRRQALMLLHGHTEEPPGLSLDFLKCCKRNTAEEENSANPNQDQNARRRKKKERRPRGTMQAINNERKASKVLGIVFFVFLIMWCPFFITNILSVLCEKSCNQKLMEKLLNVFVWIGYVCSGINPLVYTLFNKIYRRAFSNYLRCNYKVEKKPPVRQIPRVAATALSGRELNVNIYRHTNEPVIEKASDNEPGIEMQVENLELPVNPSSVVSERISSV

[7] = molecular target: 5-hydroxytryptamine receptor 6 (Homo sapiens, UniProt P50406); assay: Displacement of [3H]LSD from human 5-HT6 receptor expressed in HEK293 cells incubated for 1 hr by radioligand binding assay; format: cell-based
Sequence of 5-hydroxytryptamine receptor 6 (P50406 whole entry): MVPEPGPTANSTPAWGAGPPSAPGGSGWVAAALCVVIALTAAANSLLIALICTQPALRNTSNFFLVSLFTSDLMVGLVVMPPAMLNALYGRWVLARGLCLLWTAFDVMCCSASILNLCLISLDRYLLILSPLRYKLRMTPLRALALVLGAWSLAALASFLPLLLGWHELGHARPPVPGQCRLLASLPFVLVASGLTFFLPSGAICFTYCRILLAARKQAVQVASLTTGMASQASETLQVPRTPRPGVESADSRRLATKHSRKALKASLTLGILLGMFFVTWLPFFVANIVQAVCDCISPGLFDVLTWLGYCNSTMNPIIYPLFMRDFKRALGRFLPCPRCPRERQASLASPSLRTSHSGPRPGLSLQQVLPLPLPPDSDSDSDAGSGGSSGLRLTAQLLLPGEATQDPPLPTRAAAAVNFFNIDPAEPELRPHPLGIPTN

[8] = molecular target: 5-hydroxytryptamine receptor 7 (Homo sapiens, UniProt P34969); assay: Displacement of [3H]-5-CT from human 5-HT7B receptor expressed in HEK293 cells incubated for 1 hr by radioligand binding assay; format: cell-based
Sequence of 5-hydroxytryptamine receptor 7 (P34969 whole entry): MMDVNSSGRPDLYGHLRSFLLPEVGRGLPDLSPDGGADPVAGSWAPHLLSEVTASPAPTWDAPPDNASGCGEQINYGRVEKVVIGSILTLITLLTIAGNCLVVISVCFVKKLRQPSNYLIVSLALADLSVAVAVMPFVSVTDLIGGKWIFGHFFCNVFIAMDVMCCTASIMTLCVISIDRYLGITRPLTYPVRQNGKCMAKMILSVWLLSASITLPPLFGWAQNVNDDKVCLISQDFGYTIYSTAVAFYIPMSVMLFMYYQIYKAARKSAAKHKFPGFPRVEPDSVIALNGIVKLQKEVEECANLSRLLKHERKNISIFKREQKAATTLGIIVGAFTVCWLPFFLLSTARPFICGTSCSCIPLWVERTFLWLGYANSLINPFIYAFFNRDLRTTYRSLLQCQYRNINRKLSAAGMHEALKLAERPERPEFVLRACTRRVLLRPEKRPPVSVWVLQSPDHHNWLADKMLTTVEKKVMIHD

| Structure (SMILES) | Ki [1] | Ki [2] | Ki [3] | Ki [4] | Ki [5] | Ki [6] | Ki [7] | Ki [8] |
| --- | --- | --- | --- | --- | --- | --- | --- | --- |
| C[C@H]([C@@H](O)c1ccc(O)cc1)N1CCC(Cc2ccccc2)CC1 [(S,R)-IFENPRODIL] | 27 nM | 2300 nM | 46 nM | 510 nM | 66 nM | > 10000 nM | > 1000 nM | > 10000 nM |
| C[C@@H]([C@H](O)c1ccc(O)cc1)N1CCC(Cc2ccccc2)CC1 [(R,S)-IFENPRODIL] | 140 nM | 1600 nM | > 1000 nM | 421 nM | 95 nM | 748 nM | > 1000 nM | 513 nM |
| C[C@H]([C@H](O)c1ccc(O)cc1)N1CCC(Cc2ccccc2)CC1 | 370 nM | 5500 nM | > 1000 nM | 338 nM | 708 nM | > 10000 nM | > 10000 nM | > 10000 nM |
| C[C@@H]([C@@H](O)c1ccc(O)cc1)N1CCC(Cc2ccccc2)CC1 [(S)-IFENPRODIL] | 530 nM | 6100 nM | > 1000 nM | 369 nM | > 1000 nM | > 10000 nM | > 10000 nM | > 10000 nM |
